Results from US12498382B2, “Biomarkers for vitiligo” (INCYTE CORPORATION, priority 2019, dated 2025).

Test system: HaCaT cells
Experiment: Concentrations of inflammatory mediators produced by HaCaT cells stimulated with TNFα and IFNγ in presence/absence of JAK inhibitors (ProCarta)
Type: cell-based, human
Conditions: TNFα 25 ng/mL + IFNγ 25 ng/mL
Protocol: After 48 hours, cell culture media was removed from 24 well plates and replaced with 250 uL of media containing serial diluted drug, then incubated for 15 minutes at 37° C./5% CO2. […] The final concentration of Recombinant Human Interferon gamma and Recombinant Human Tumor Necrosis Factor alpha was 25 ng/mL of each cytokine. Cytokine stimulation added to wells containing drug brought the final concentrations for each drug treatment to 25 nM, 50 nM, 100 nM, and 200 nM. Treated plates were mixed by gentle agitation for 30 seconds then incubated for 24 hours at 37° C./5% CO2. At the end of the 24 hour incubation media was immediately removed from each plate.
Media was incubated with antibody conjugated beads designed to bind to the epitopes of specific target proteins and identify the bound protein through the bead's distinctive spectral pattern. Biotinylated detection antibodies, designed to bind to different epitopes of the same target proteins, and Streptavidin-PE are added to assay plates to quantify the amount of the target proteins. Assay plates were read on the Luminex 200 and data were expressed as Net Median Fluorescence Intensity. […] The concentration of each protein was extrapolated from the antigen standard curve and concentrations were expressed as pg/mL (Table 15).

N#CCC1(n2cc(-c3ncnc4[nH]ccc34)cn2)CN(C2CCN(C(=O)c3ccnc(C(F)(F)F)c3F)CC2)C1 [Cpc B]
BDNF concentration (drug 25 nM): 4.05 ± 0.19 pg/mL
EGF concentration (drug 25 nM): 1.76 ± 0.17 pg/mL
Eotaxin concentration (drug 25 nM): 10.22 ± 0.15 pg/mL
FGF-2 concentration (drug 25 nM): 20.63 ± 1.49 pg/mL
GM-CSF concentration (drug 25 nM): 130.13 ± 2.13 pg/mL
GRO alpha concentration (drug 25 nM): 547.38 ± 31.41 pg/mL
HGF concentration (drug 25 nM): 14.15 ± 0.3 pg/mL
IFN alpha concentration (drug 25 nM): 0.24 ± 0.02 pg/mL
IFN gamma concentration (drug 25 nM): 35023.68 ± 10759.49 pg/mL
IL1RA concentration (drug 25 nM): 5944.59 ± 264.97 pg/mL
IL1 alpha concentration (drug 25 nM): 7.34 ± 0.31 pg/mL
IL1 beta concentration (drug 25 nM): 9.53 ± 0.3 pg/mL
IL2 concentration (drug 25 nM): 33.62 ± 1.88 pg/mL
IL4 concentration (drug 25 nM): 6.74 ± 1.65 pg/mL
IL5 concentration (drug 25 nM): 27.31 ± 1.32 pg/mL
IL6 concentration (drug 25 nM): 749.64 ± 32.94 pg/mL
IL7 concentration (drug 25 nM): 2.14 ± 0.12 pg/mL
IL8 concentration (drug 25 nM): 2837.03 ± 135.03 pg/mL
IL9 concentration (drug 25 nM): 4.55 ± 0.85 pg/mL
IL10 concentration (drug 25 nM): 0.87 ± 0.06 pg/mL
IL12p70 concentration (drug 25 nM): 2.01 ± 0.21 pg/mL
IL13 concentration (drug 25 nM): 2.79 ± 0.33 pg/mL
IL15 concentration (drug 25 nM): 3.3 ± 0.93 pg/mL
IL17A concentration (drug 25 nM): 4.6 ± 0.5 pg/mL
IL18 concentration (drug 25 nM): 162.16 ± 4.98 pg/mL
IL21 concentration (drug 25 nM): 2.66 ± 0.22 pg/mL
IL22 concentration (drug 25 nM): 8.69 ± 0.42 pg/mL
IL23 concentration (drug 25 nM): 7.28 ± 0.16 pg/mL
IL27 concentration (drug 25 nM): 8.03 ± 1.71 pg/mL
IL31 concentration (drug 25 nM): 3.6 ± 0.28 pg/mL
IP-10/CXCL10 concentration (drug 25 nM): 4068.98 ± 507.12 pg/mL
LIF concentration (drug 25 nM): 68.82 ± 2.51 pg/mL
MCP1 concentration (drug 25 nM): 29762.04 ± 13226.23 pg/mL
MIP1 alpha concentration (drug 25 nM): 103.81 ± 3.29 pg/mL
MIP1 beta concentration (drug 25 nM): 319.77 ± 6.92 pg/mL
PDGF-BB concentration (drug 25 nM): 5.19 ± 0.15 pg/mL
PIGF-1 concentration (drug 25 nM): 56.69 ± 2.37 pg/mL
RANTES concentration (drug 25 nM): 203.77 ± 12.55 pg/mL
SCF concentration (drug 25 nM): 4.33 ± 0.18 pg/mL
SDF-1 alpha concentration (drug 25 nM): 3430.87 ± 111.52 pg/mL
TNF alpha concentration (drug 25 nM): 10574.99 ± 753.02 pg/mL
TNF beta concentration (drug 25 nM): 4.91 ± 0.79 pg/mL
VEGF-A concentration (drug 25 nM): 1249.75 ± 44.89 pg/mL
VEGF-D concentration (drug 25 nM): 9.22 ± 0.87 pg/mL
bNGF concentration (drug 25 nM): 7.7 ± 0.55 pg/mL
BDNF concentration (drug 50 nM): 4.04 ± 0.24 pg/mL
EGF concentration (drug 50 nM): 1.67 ± 0.15 pg/mL
Eotaxin concentration (drug 50 nM): 9.92 ± 0.2 pg/mL
FGF-2 concentration (drug 50 nM): 19.94 ± 1.49 pg/mL
GM-CSF concentration (drug 50 nM): 128.05 ± 2.9 pg/mL
GRO alpha concentration (drug 50 nM): 544.63 ± 38.3 pg/mL
HGF concentration (drug 50 nM): 13.65 ± 0.53 pg/mL
IFN alpha concentration (drug 50 nM): 0.26 ± 0 pg/mL
IFN gamma concentration (drug 50 nM): 28977.92 ± 7400.61 pg/mL
IL1RA concentration (drug 50 nM): 5840.44 ± 314.35 pg/mL
IL1 alpha concentration (drug 50 nM): 7.06 ± 0.37 pg/mL
IL1 beta concentration (drug 50 nM): 8.96 ± 0.43 pg/mL
IL2 concentration (drug 50 nM): 31.96 ± 1.47 pg/mL
IL4 concentration (drug 50 nM): 5.74 ± 1.1 pg/mL
IL5 concentration (drug 50 nM): 25.5 ± 1.65 pg/mL
IL6 concentration (drug 50 nM): 674.21 ± 27.15 pg/mL
IL7 concentration (drug 50 nM): 1.9 ± 0.12 pg/mL
IL8 concentration (drug 50 nM): 2862.21 ± 240.57 pg/mL
IL9 concentration (drug 50 nM): 4.13 ± 0.43 pg/mL
IL10 concentration (drug 50 nM): 0.85 ± 0.05 pg/mL
IL12p70 concentration (drug 50 nM): 1.68 ± 0.21 pg/mL
IL13 concentration (drug 50 nM): 2.73 ± 0.23 pg/mL
IL15 concentration (drug 50 nM): 2.71 ± 0.65 pg/mL
IL17A concentration (drug 50 nM): 4.09 ± 0.43 pg/mL
IL18 concentration (drug 50 nM): 153.4 ± 3.46 pg/mL
IL21 concentration (drug 50 nM): 2.45 ± 0.29 pg/mL
IL22 concentration (drug 50 nM): 8.9 ± 0^ pg/mL
IL23 concentration (drug 50 nM): 7.43 ± 0 pg/mL
IL27 concentration (drug 50 nM): 6.95 ± 0.83 pg/mL
IL31 concentration (drug 50 nM): 3.22 ± 0.38 pg/mL
IP-10/CXCL10 concentration (drug 50 nM): 3872.74 ± 295.01 pg/mL
LIF concentration (drug 50 nM): 67.89 ± 3.08 pg/mL
MCP1 concentration (drug 50 nM): 27471.13 ± 12271.13 pg/mL
MIP1 alpha concentration (drug 50 nM): 100.64 ± 4.66 pg/mL
MIP1 beta concentration (drug 50 nM): 318.84 ± 8.17 pg/mL
PDGF-BB concentration (drug 50 nM): 5.28 ± 0.18 pg/mL
PIGF-1 concentration (drug 50 nM): 53.92 ± 2.81 pg/mL
RANTES concentration (drug 50 nM): 198.35 ± 15.1 pg/mL
SCF concentration (drug 50 nM): 4.16 ± 0.18 pg/mL
SDF-1 alpha concentration (drug 50 nM): 3356.32 ± 136.22 pg/mL
TNF alpha concentration (drug 50 nM): 11776.9 ± 1658.47 pg/mL
TNF beta concentration (drug 50 nM): 4.13 ± 0.5 pg/mL
VEGF-A concentration (drug 50 nM): 1242.76 ± 50.39 pg/mL
VEGF-D concentration (drug 50 nM): 9.72 ± 0.75 pg/mL
bNGF concentration (drug 50 nM): 7.09 ± 0.71 pg/mL
BDNF concentration (drug 100 nM): 4.06 ± 0.26 pg/mL
EGF concentration (drug 100 nM): 1.56 ± 0.2 pg/mL
Eotaxin concentration (drug 100 nM): 10.09 ± 0.19 pg/mL
FGF-2 concentration (drug 100 nM): 20.42 ± 1.5 pg/mL
GM-CSF concentration (drug 100 nM): 133.06 ± 4.24 pg/mL
GRO alpha concentration (drug 100 nM): 568.49 ± 35.18 pg/mL
HGF concentration (drug 100 nM): 14.41 ± 0.55 pg/mL
IFN alpha concentration (drug 100 nM): 0.26 ± 0 pg/mL
IFN gamma concentration (drug 100 nM): 29276.66 ± 7697.74 pg/mL
IL1RA concentration (drug 100 nM): 5953.24 ± 309.78 pg/mL
IL1 alpha concentration (drug 100 nM): 7 ± 0.41 pg/mL
IL1 beta concentration (drug 100 nM): 8.66 ± 0.41 pg/mL
IL2 concentration (drug 100 nM): 31.33 ± 1.43 pg/mL
IL4 concentration (drug 100 nM): 5.78 ± 0.72 pg/mL
IL5 concentration (drug 100 nM): 26.52 ± 1.54 pg/mL
IL6 concentration (drug 100 nM): 643.8 ± 27.14 pg/mL
IL7 concentration (drug 100 nM): 2.12 ± 0.14 pg/mL
IL8 concentration (drug 100 nM): 2980.9 ± 173.36 pg/mL
IL9 concentration (drug 100 nM): 4.13 ± 0.43 pg/mL
IL10 concentration (drug 100 nM): 0.88 ± 0.06 pg/mL
IL12p70 concentration (drug 100 nM): 1.77 ± 0.18 pg/mL
IL13 concentration (drug 100 nM): 2.55 ± 0.33 pg/mL
